Values after ≈ are worked out from the molar mass of the structure shown. Active and inactive are the calls of the source. The calls are words filed in the database; no cut-off is given here.

A short description of data set [1]: Cytotoxicity against human 9KB cells. The data set is classed as functional. The following applies: read-out: ED50 (the source's name).
Data set [2] has as its system Agrobacterium tumefaciens. The data set can be described thus: Antitumor activity against Agrobacterium tumefaciens-induced crown gall tumor in potato tubers by potato disk assay. The data set is classed as functional.
The subject of another data set is Artemia. The data set can be described thus: Toxicity in brine shrimp. Format: organism-based. Particulars: in vivo.
A further data set concerns P388. The data set can be described thus: Antileukemic activity against mouse P388 cells xenografted in mouse. Format: functional.

Take `C/C=C1/C(=O)O[C@]23C=C[C@@H]4C(C(=O)OC)=CO[C@H](O[C@@H]12)[C@@H]43` [PLUMERICIN]: the EC50 in data set [1] turned out to be 2.6 mg/L (≈ 8.96 µM). Besides, in data set [2], the “inhibition (INH)” value turned out to be 44%. Moreover, the LC50 in the data set on Artemia stood at 1.7 ppm.

As to `C/C=C1/C(=O)O[C@@]23C=C[C@H]4[C@@H](C(=O)OC)[C@H](O)O[C@@H](O[C@H]12)[C@H]43` [ALLAMANDIN], the EC50 in data set [1] worked out at 2.1 mg/L (≈ 6.81 µM). In the data set on P388, the T/C worked out at 145%. Also, the “inhibition (INH)” value in data set [2] is 51%. Also, in the data set on Artemia, the LC50 turned out to be 21.3 ppm.

Take `C/C=C1/C(=O)O[C@@]23C=C[C@H]4C[C@H](O)O[C@@H](O[C@H]12)[C@H]43` [ALLAMCIN]: the inhibition result in data set [2] is “inactive”. The 50% lethal concentration (LC50) in the data set on Artemia is listed as above 1000 ppm.

Turning to `C/C=C1\C(=O)O[C@]23C=C[C@@H]4C(C(=O)OC)=CO[C@H](O[C@@H]12)[C@@H]43` [ISOPLUMERICIN], the EC50 in data set [1] was determined as 2.7 mg/L (≈ 9.3 µM). The molecule further displayed a T/C in the data set with P388 of 145%. For the same molecule, the “inhibition (INH)” value in data set [2] stood at 44%. Moreover, in the data set with Artemia, the LC50 came out at 1.7 ppm.

Turning to `COc1cc2ccc(=O)oc2cc1O` [SCOPOLETIN], the EC50 in data set [1] is 16 mg/L (≈ 83.3 µM). In addition, the T/C with P388 stood at 133%. Moreover, the “inhibition (INH)” value in data set [2] turned out to be 20%. In addition, the LC50 in the data set with Artemia was 55 ppm.

On to `COc1cc([C@H]2OC[C@H]3[C@@H]2CO[C@H]3c2ccc(O)c(OC)c2)ccc1O` [PINORESINOL], for which the EC50 in data set [1] amounted to 100 mg/L (≈ 279 µM). Further, in data set [2], the inhibition result was “inactive”. The same molecule came in with a median lethal concentration (LC50) with Artemia of 377 ppm.

Regarding `COc1cc2ccc(=O)oc2cc1OC` [SCOPARONE], the EC50 in data set [1] was 61 mg/L (≈ 296 µM). In addition, the inhibition entry in data set [2] was “inactive”. For the same molecule, in the data set on Artemia, the LC50 was determined as 349 ppm.

As a reminder, the LC50 is the concentration lethal to half of the exposed cells or organisms. A higher LC50 goes with a less lethal substance. Usually T/C stands for the result in the treated group divided by that in the control group, in per cent.
